In patent publication US11932653B2, “Lycorine derivative, and pharmaceutical composition and use thereof” (priority 2018, dated 2024):
pEC50: −log10 of the molar value. “And” between values parts separate entries of the source, which are not always exact repeats. Equal values may be shown once.

Assays:
EV71 [1] = assay: In-vitro experiment against EV71 virus (RD cells, MTT); type: cell-based
Procedure: (§1) RD cells were seeded into a 96-well plate (10^4 cells/well), and infected with 100× TCID50 of EV71 viruses. After 2 hrs, various concentrations of the derivative were added. […] Uninfected cells were also given various concentrations of the derivative to determine the CC50.

[2] = Cytotoxicity in uninfected RD cells (CC50, MTT); type: cell-based; details: human, Table 1
Procedure: as §1
(§2) RD cells were seeded into a 96-well plate (10^4 cells/well), and infected with 100×TCID50 of CAV16 viruses. After 2 hrs, various concentrations of the derivative were added. […] Uninfected cells were also given various concentrations of the derivative to determine the CC50.

CAV16 = assay: In-vitro experiment against Coxsackievirus A16 (CAV16) (RD cells, MTT); type: cell-based, Coxsackievirus Virus A16 (CAV16)
Procedure: as §2

EV71 [3] = assay: Therapeutic effect on EV71-infected mice; type: in vivo, ICR mice; details: 7 days
Procedure: 10-day-old SPF grade ICR mice (female:male 1:1) were used. A placebo group and a treatment group with Compound 1 were set, each group having 10 mice. The mice were infected with the virus by intraperitoneal injection. 2 hrs after infection, the mice were administered by intraperitoneal injection. The dosage of Compound 1 was set to 1 mg/kg body weight/day. The mice in the placebo group were injected with the same dose of normal saline, and the mice in each group were administered once a day for consecutive 7 days. From the day of virus infection, the observation was made twice a day for 14 days. The weight, symptoms and survival rate of the mice were recorded.

[4] = Pharmacokinetic experiment in plasma; type: in vivo; details: male ICR mice, Compound 6 1.5 mg/kg ip
Procedure: (§3) Male ICR mice weighing 20-22 g were intraperitoneally injected with Compound 6 (1.5 mg/kg), and then blood was taken from the orbit at 5 min, 10 min, 15 min, 30 min, 1 h, 2 h, 4 h, 6 h, 8 h, 12 h, and 24 h. The heparin anticoagulant was added, placed on ice, and centrifuged at 7000 r/min for 7 min. The plasma was separated for use. 60 μl of acetonitrile was added to 20 μL of the plasma sample obtained after administration, to precipitate the protein. After high-speed centrifugation at 13300 r/min for 7 min, 60 μl of the supernatant was taken and centrifuged at 13300 r/min for 4 min. 5 μl of the supernatant was taken for UPLC/MS analysis. Plasma pharmacokinetics was analyzed by Winnolin software and fitted by a non-compartmental model.
as §3, with “Compound 20” for “Compound 6”, “protein. […]” for “protein. After high-speed centrifugation at 13300 r/min for 7 min, 60 μl of the supernatant was taken and centrifuged at 13300 r/min for 4 min. 5 μl of the supernatant was taken for UPLC/MS analysis.”

Row | Compound | pEC50 (EV71 [1]; Enterovirus A, RD cells infected with 100x TCID50 EV71, compound added after 2 hrs, MTT at 48 hrs) | SI (EV71 [1]; selectivity index, EV71, RD cells) | CC50 at 48 h [2] | pEC50 (CAV16; Coxsackievirus, RD cells infected with 100x TCID50 CAV16, compound added after 2 hrs, MTT at 48 hrs) | SI (CAV16; selectivity index, CAV16, RD cells) | mortality rate (EV71 [3]; 10-day-old ICR mice infected ip with EV71, 1 mg/kg body weight/day ip, observed 14 days, placebo 100%) | recovery of surviving mice (EV71 [3]; EV71-infected ICR mice, 1 mg/kg/day ip, after 14 days) | symptoms, weight loss and paralysis (EV71 [3]; EV71-infected ICR mice, 1 mg/kg/day ip, versus placebo) | t1/2z ([4]; title: metabolite of Compound 6, individual animals 1-3, 1.5 mg/kg) | t1/2z Mean ± SD ([4]; title: metabolite of Compound 6, mean of 3)
1 | O=C(COc1ccccc1)OC1C(O)C=C2CCN3Cc4cc5c(cc4C1C23)OCO5 (stereo not shown) [Compound 1, 1-phenoxyacetyl-lycorine] | 5.79 | 72.41 | 119 µM | 5.92 | 99.80 | 40% | the surviving mice recover to normal after 14 days | reduced symptoms, and significantly alleviated weight loss and paralysis | – | –
2 | 1-(4-fluoro-phenoxyacetyl)-lycorine [Compound 6] | – | – | – | – | – | – | – | – | 25.719 h and 14.311 h and 26.875 h | 22.3 ± 6.94 h
